One experiment has as its target T1, HCV NS5B RdRp (Hepatitis C virus genotype 1b, UniProt Q9WMX2).
T1 construct: The protein was expressed with an 18 amino acid C-terminal truncation to enhance the solubility; made in house; host or cells: E. coli BL21(DE3)
Put plainly: HCV NS5B RdRp enzyme assay. The experiment is classed as biochemical. The conditions noted are these: HCV NS5B genotype 1b, standard or modified RdRp assay not given. The method, then: HCV NS5B RdRp cloning, expression, and purification. The cDNA encoding the NS5B protein of HCV, genotype 1b, was cloned into the pET21a expression vector. The protein was expressed with an 18 amino acid C-terminal truncation to enhance the solubility. The E. coli competent cell line BL21(DE3) was used for expression of the protein. Cultures were grown at 37° C. for ˜4 hours until the cultures reached an optical density of 2.0 at 600 nm. The cultures were cooled to 20° C. and induced with 1 mM […]. Fresh ampicillin was added to a final concentration of 50 μg/ml and the cells were grown overnight at 20° C.
Cell pellets (3 L) were lysed for purification to yield 15-24 mgs of purified NS5B. The lysis buffer consisted of 20 mM Tris-HCl, pH 7.4, 500 mM NaCl, 0.5% triton X-100, 1 mM DTT, 1 mM EDTA, 20% glycerol, 0.5 mg/ml lysozyme, 10 mM MgCl2, 15 ug/ml deoxyribonuclease I, and Complete TM protease inhibitor tablets (Roche). After addition of the lysis buffer, frozen cell pellets were resuspended using a tissue homogenizer. To reduce the viscosity of the sample, aliquots of the lysate were sonicated on ice using a microtip attached to a Branson sonicator. The sonicated lysate was centrifuged at 100,000×g for 1 hr at 4° C. and filtered through a 0.2 μm filter unit (Corning).
The protein was purified using two sequential chromatography steps: Heparin sepharose CL-6B and polyU sepharose 4B (Pharmacia). The chromatography buffers were identical to the lysis buffer but contained no lysozyme, deoxyribonuclease I, MgCl2 or protease inhibitor and the NaCl concentration of the buffer was adjusted according to the requirements for charging the protein onto the column. Each column was eluted with a NaCl gradient which varied in length from 5-50 column volumes depending on the column type. After the final chromatography step, the resulting purity of the enzyme is >90% based on SDS-PAGE analysis. The enzyme was aliquoted and stored at −80° C.
Standard HCV NS5B RdRp enzyme assay. HCV RdRp genotype 1b assays were run in a final volume of 60 μl in 96 well plates (Corning 3600). The assay buffer is composed of 20 mM Hepes, pH 7.5, 2.5 mM KCl, 2.5 mM MgCl2, 1 mM DTT, 1.6 U RNAse inhibitor (Promega N2515), 0.01 mg/ml BSA (Sigma B6917), and 2% glycerol. All compounds were serially diluted (3-fold) in DMSO and diluted further in water such that the final concentration of DMSO in the assay was 2%. HCV RdRp genotype 1b enzyme was used at a final concentration of 28 nM. A polyA template was used at 6 nM, and a biotinylated oligo-dT12 primer was used at 180 nM final concentration. Template was obtained commercially (Amersham 27-4110). Biotinylated primer was prepared by Sigma Genosys. 3H-UTP was used at (0.29 μM total UTP). Reactions were initiated by the addition of enzyme, incubated at 30° C. for 60 min, and stopped by adding 25 μl of 50 mM EDTA containing SPA beads (4 μg/μl, Amersham RPNQ 0007). Plates were read on a Packard Top Count NXT after >1 hr incubation at room temperature.
Modified HCV NS5B RdRp enzyme assay. A modified enzyme assay was performed essentially as described for the standard enzyme assay except for the following: The biotinylated oligo dT12 primer was precaptured on streptavidin-coated SPA beads by mixing primer and beads in assay buffer and incubating at room temperature for one hour. Unbound primer was removed after centrifugation. The primer-bound beads were resuspended in 20 mM Hepes buffer, pH 7.5 and used in the assay at final concentrations of 20 nM primer and […] beads. Order of addition in the assay: enzyme (1.75 nM) was added to diluted compound followed by the addition of a mixture of template (0.36 nM), 3H-UTP (0.6 μCi, 0.29 μM), and primer-bound beads, to initiate the reaction; concentrations given are final. Reactions were allowed to proceed for 4 hours at 30° C.
IC50 values for compounds were determined using seven different [I]. […]

The subject of a further experiment is HCV replicon cells. Put plainly: HCV replicon FRET / luciferase assay. Format: cell-based. The conditions noted are these: Hepatitis C virus, 50% reduction in FRET or luciferase activity. The method, then:
FRET Assay Preparation. The HCV FRET screening assay was performed in 96-well cell culture plates. The FRET peptide (Anaspec, Inc.) (Taliani et al., Anal. Biochem. 1996, 240, 60-67) contains a fluorescence donor, EDANS, near one end of the peptide and an acceptor, DABCYL, near the other end. The fluorescence of the peptide is quenched by […] resonance energy transfer (RET) between the donor and the acceptor, but as the NS3 protease cleaves the peptide the products are released from RET quenching and the fluorescence of the donor becomes apparent. The assay reagent was made as follows: 5× cell Luciferase cell culture lysis reagent from Promega (#E153A) diluted to 1× with dH2O, NaCl added to 150 mM final, the FRET peptide diluted to 20 μM final from a 2 mM stock.
To prepare plates, HCV replicon cells, with or without a Renilla luciferase reporter gene, were trypsinized and plated in a 96-well plate with titrated test compounds added in columns 3 through 12; columns 1 and 2 contained a control compound (HCV control inhibitor), and the bottom row contained cells with DMSO only. The plates were then placed in a CO2 incubator at 37° C.
Assays. Subsequent to addition of the test compounds described above (FRET Assay Preparation), at various times the plate was removed and Alamar blue solution (Trek Diagnostics, #00-100) was added to measure cellular toxicity. After reading in a Cytoflour 4000 instrument (PE Biosystems), plates were rinsed with PBS and then used for FRET assay by the addition of 30 ul of the FRET peptide assay reagent described above (FRET Assay Preparation) per well. The plate was then placed into the Cytoflour 4000 instrument which had been set to 340 excite/490 emission, automatic mode for up to 20 cycles and the plate read in a kinetic mode. Typically, the signal to noise using an endpoint analysis after the reads was at least three-fold. Alternatively, after Alamar blue reading, plates were rinsed with PBS, then used for luciferase assay using the Promega Dual-Glo Luciferase Assay System or the Promega EnduRen Live Cell Substrate assay.
Compound analysis was performed by quantification of the relative HCV replicon inhibition and the relative cytotoxicity values. To calculate cytoxicity values, the average Alamar Blue fluorescence signals from the control wells were set as 100% non-toxic. The individual signals in each of the compound test wells were then divided by the average control signal and multiplied by 100% to determine […]. To calculate the HCV replicon inhibition values, an average background value was obtained from the two wells containing the highest amount of HCV control inhibitor at the end of the assay period. These numbers were similar to those obtained from naïve Huh-7 cells. The background numbers were then subtracted from the average signal obtained from the control wells and this number was used as 100% activity. The individual signals in each of the compound test wells were then divided by the averaged control values after background subtraction and multiplied by 100% to determine percent activity. EC50 values were calculated as the concentration which caused a 50% reduction in FRET or luciferase activity. The two numbers generated for the compound plate, percent cytoxicity and percent activity, were used to determine compounds of interest for further analysis.
Background: A replicon is a self-replicating genome or part of one, used to study replication in cells.

The record followed here is US8178523B2, “Compounds for the treatment of hepatitis C” (Bristol-Myers Squibb Company, priority 2008, dated 2012).

T1 sequence (Q9WMX2 2420-2992): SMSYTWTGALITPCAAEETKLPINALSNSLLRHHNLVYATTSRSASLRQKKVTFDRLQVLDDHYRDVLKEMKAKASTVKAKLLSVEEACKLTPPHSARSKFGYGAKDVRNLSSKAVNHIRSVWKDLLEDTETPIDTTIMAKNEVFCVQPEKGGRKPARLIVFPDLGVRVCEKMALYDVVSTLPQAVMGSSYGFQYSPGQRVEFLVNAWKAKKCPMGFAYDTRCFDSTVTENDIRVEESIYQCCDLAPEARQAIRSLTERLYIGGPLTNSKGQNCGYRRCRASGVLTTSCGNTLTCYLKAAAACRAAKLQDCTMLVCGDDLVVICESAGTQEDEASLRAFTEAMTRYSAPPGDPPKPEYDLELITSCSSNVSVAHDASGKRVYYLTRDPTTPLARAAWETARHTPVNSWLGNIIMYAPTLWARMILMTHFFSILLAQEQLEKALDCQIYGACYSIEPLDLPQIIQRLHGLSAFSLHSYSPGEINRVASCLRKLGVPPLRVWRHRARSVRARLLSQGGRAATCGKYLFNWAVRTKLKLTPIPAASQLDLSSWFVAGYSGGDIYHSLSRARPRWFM

A word on the IC50: it is the concentration that inhibits the measured activity by half. A high value points to lower potency. Usually EC50 stands for the midpoint of the concentration-response curve. For `COc1ccc2c(c1)C1CC1(C(=O)N1CCC(c3nnc(C(C)C)o3)CC1)Cn1c-2c(C2CCCCC2)c2ccc(C(=O)NS(=O)(=O)C(C)C)cc21` (stereo not drawn), the IC50 against HCV NS5B RdRp (class symbols) is 2 to 500 nM. The same compound yielded a concentration giving a half-maximal response (EC50) in the experiment on HCV replicon cells (class symbols) of 2 to 500 nM.

At HCV NS5B RdRp (class symbols), `CCOC(=O)c1coc(C2CCN(C(=O)C34CC3c3cc(OC)ccc3-c3c(C5CCCCC5)c5ccc(C(=O)NS(=O)(=O)N(C)C)cc5n3C4)CC2)n1` (stereo not drawn) showed an IC50 of 2 to 500 nM. The same compound had an EC50 in the experiment with HCV replicon cells (class symbols) of 2 to 500 nM.

Regarding `COc1ccc2c(c1)C=C(C(=O)N1CCC(c3nc(C)no3)CC1)Cn1c-2c(C2CCCCC2)c2ccc(C(=O)NS(=O)(=O)N(C)C)cc21`, the IC50 against HCV NS5B RdRp (numeric values) stood at 90 nM. Also, a half-maximal effect in the experiment on HCV replicon cells (numeric values) (EC50) was put at 230 nM.

For `COc1ccc2c(c1)[C@@H]1C[C@]1(C(=O)N1CCC(c3nnc(C)o3)CC1)Cn1c-2c(C2CCCCC2)c2ccc(C(=O)NS(=O)(=O)N(C)C)cc21`, the half-inhibitory concentration (IC50) at HCV NS5B RdRp (numeric values) came out at 30 nM. For the same compound, the midpoint of the response in the experiment on HCV replicon cells (numeric values), the EC50, lay at 30 nM.

In the case of `COc1ccc2c(c1)C1CC1(C(=O)N1CCC(c3nnc(-c4ccccc4)o3)CC1)Cn1c-2c(C2CCCCC2)c2ccc(C(=O)NS(=O)(=O)N(C)C)cc21` (stereo not drawn), the IC50 at HCV NS5B RdRp (class symbols) was in the range of 2 to 500 nM. In addition, the EC50 with HCV replicon cells (class symbols) lay in the range of 2 to 500 nM.

With `COc1ccc2c(c1)C1CC1(C(=O)N1CCC(n3cc(-c4ccccc4)cn3)CC1)Cn1c-2c(C2CCCCC2)c2ccc(C(=O)NS(=O)(=O)N(C)C)cc21` (stereo not drawn), the half-maximal inhibitory concentration (IC50) against HCV NS5B RdRp (class symbols) lay within 2 to 500 nM. The EC50 in the experiment with HCV replicon cells (class symbols) lay within 2 to 500 nM.

With `COc1ccc2c(c1)C1CC1(C(=O)N1CCC(c3nc(C)no3)CC1)Cn1c-2c(C2CCCCC2)c2ccc(C(=O)NS(=O)(=O)C(C)C)cc21` (stereo not drawn), the IC50 at HCV NS5B RdRp (numeric values) was determined as 30 nM. The compound further yielded a concentration for a half-maximal effect (EC50) in the experiment with HCV replicon cells (numeric values) of 100 nM.

With `COc1ccc2c(c1)C1CC1(C(=O)N1CCC(c3cc(-c4ccco4)n[nH]3)CC1)Cn1c-2c(C2CCCCC2)c2ccc(C(=O)NS(=O)(=O)N(C)C)cc21` (stereo not drawn), at HCV NS5B RdRp (class symbols), the IC50 fell in the range of 2 to 500 nM. Besides, in the experiment on HCV replicon cells (class symbols), the EC50 lay in the range of 2 to 500 nM.

Compound `COc1ccc2c(c1)C=C(C(=O)N1CCC(c3nncn3C)CC1)Cn1c-2c(C2CCCCC2)c2ccc(C(=O)NS(=O)(=O)N(C)C)cc21` displayed an IC50 against HCV NS5B RdRp (class symbols) of 2 to 500 nM. In the experiment on HCV replicon cells (class symbols), this compound showed an EC50 of 2 to 500 nM.

On to `COc1ccc2c(c1)C1CC1(C(=O)N1CCC(c3nnc(C)o3)CC1)Cn1c-2c(C2CCCCC2)c2ccc(C(=O)NS(=O)(=O)N(C)C)cc21` (stereo not drawn), for which 20 nM corresponded to half-maximal inhibition against HCV NS5B RdRp (numeric values) (IC50). In addition, the EC50 in the experiment on HCV replicon cells (numeric values) is 50 nM.

`CCCc1noc(C2CCN(C(=O)C34CC3c3cc(OC)ccc3-c3c(C5CCCCC5)c5ccc(C(=O)NS(=O)(=O)N(C)C)cc5n3C4)CC2)n1` (stereo not drawn) yielded an IC50 against HCV NS5B RdRp (class symbols) of 2 to 500 nM. In the experiment on HCV replicon cells (class symbols), this compound showed an EC50 of 2 to 500 nM.

`COc1ccc2c(c1)C1CC1(C(=O)N1CCC(n3cc(-c4ccc(Cl)cc4)cn3)CC1)Cn1c-2c(C2CCCCC2)c2ccc(C(=O)NS(=O)(=O)N(C)C)cc21` (stereo not drawn): the 50% inhibitory concentration (IC50) on HCV NS5B RdRp (class symbols) fell in the range of 2 to 500 nM. The same compound showed an EC50 with HCV replicon cells (class symbols) of 2 to 500 nM.

At HCV NS5B RdRp (class symbols), `COc1ccc2c(c1)C1CC1(C(=O)N1CCC(n3cc(-c4ccccc4Cl)cn3)CC1)Cn1c-2c(C2CCCCC2)c2ccc(C(=O)NS(=O)(=O)N(C)C)cc21` (stereo not drawn) yielded an IC50 of 2 to 500 nM. The compound further showed a concentration giving a half-maximal response (EC50) with HCV replicon cells (class symbols) of 2 to 500 nM.

Regarding `CCc1nnc(C2CCN(C(=O)C34CC3c3cc(OC)ccc3-c3c(C5CCCCC5)c5ccc(C(=O)NS(=O)(=O)C(C)C)cc5n3C4)CC2)o1` (stereo not drawn), at HCV NS5B RdRp (class symbols), the IC50 is 2 to 500 nM. In the experiment on HCV replicon cells (class symbols), this compound returned an EC50 of 2 to 500 nM.

Regarding `COc1ccc2c(c1)C=C(C(=O)N1CCCCC1c1nc(C(C)C)no1)Cn1c-2c(C2CCCCC2)c2ccc(C(=O)NS(=O)(=O)N(C)C)cc21` (stereo not drawn), at HCV NS5B RdRp (numeric values), it took 150 nM to reach half-maximal inhibition (IC50). The response in the experiment with HCV replicon cells (numeric values) was half-maximal at 1000 nM (EC50).

Turning to `COc1ccc2c(c1)C=C(C(=O)N1CCCCC1c1nccs1)Cn1c-2c(C2CCCCC2)c2ccc(C(=O)NS(=O)(=O)N(C)C)cc21` (stereo not drawn), on HCV NS5B RdRp (numeric values), the IC50 came to 100 nM. The same compound returned an EC50 in the experiment with HCV replicon cells (numeric values) of 460 nM.

The compound `COc1ccc2c(c1)C1CC1(C(=O)N1CCC(c3noc4cc(F)ccc34)CC1)Cn1c-2c(C2CCCCC2)c2ccc(C(=O)N[S+]([O-])N(C)C)cc21` (stereo not drawn) returned an IC50 at HCV NS5B RdRp (class symbols) of 2 to 500 nM. In the experiment on HCV replicon cells (class symbols), this compound returned an EC50 of 2 to 500 nM.

Compound `COc1ccc2c(c1)C1CC1(C(=O)N1CCC(n3c(C)nnc3C)CC1)Cn1c-2c(C2CCCCC2)c2ccc(C(=O)NS(=O)(=O)N(C)C)cc21` (stereo not drawn) returned an IC50 at HCV NS5B RdRp (class symbols) of 2 to 500 nM. Moreover, the EC50 with HCV replicon cells (class symbols) is 2 to 500 nM.
